Laboratory results from ChEMBL document CHEMBL1201862, “PubChem BioAssay data set” (2004).
The source made the active and inactive calls.

What was measured:
[1] = biological target: T1, Short transient receptor potential channel 4 (Mus musculus, UniProt Q9QUQ5); assay: calcium entry via TRPC4 opening agents – cell-based, HEK293 TRPC4/mu-opioid, Fluo-4 calcium, dose response (AID 434937); assay type: functional
T1 sequence (Q9QUQ5 whole entry): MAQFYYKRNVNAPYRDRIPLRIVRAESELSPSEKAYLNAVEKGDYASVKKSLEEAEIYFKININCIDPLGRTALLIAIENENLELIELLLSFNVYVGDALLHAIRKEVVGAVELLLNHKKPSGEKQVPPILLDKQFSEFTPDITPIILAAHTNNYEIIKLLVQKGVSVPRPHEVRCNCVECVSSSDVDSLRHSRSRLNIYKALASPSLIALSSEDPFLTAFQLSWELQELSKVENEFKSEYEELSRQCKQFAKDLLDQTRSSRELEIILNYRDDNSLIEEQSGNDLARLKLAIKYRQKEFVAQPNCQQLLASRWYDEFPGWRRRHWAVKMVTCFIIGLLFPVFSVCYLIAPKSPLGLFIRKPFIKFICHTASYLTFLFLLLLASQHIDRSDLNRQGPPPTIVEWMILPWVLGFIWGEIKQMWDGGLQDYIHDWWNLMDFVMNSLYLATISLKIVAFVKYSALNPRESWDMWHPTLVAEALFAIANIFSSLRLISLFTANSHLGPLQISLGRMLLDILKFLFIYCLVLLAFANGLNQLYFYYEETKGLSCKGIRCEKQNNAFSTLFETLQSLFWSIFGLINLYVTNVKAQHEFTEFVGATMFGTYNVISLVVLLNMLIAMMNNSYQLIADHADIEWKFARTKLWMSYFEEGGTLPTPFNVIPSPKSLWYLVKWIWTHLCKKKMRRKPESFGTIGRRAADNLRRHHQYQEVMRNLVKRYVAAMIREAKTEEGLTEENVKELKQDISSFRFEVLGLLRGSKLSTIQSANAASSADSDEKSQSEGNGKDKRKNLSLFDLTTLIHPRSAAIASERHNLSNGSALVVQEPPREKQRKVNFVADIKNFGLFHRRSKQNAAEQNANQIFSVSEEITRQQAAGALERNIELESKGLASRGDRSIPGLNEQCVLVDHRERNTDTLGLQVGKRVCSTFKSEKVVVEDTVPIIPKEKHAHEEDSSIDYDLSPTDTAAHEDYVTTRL

[2] = biological target: FAD-linked sulfhydryl oxidase ALR (Homo sapiens, UniProt P55789); assay: ALR-catalysed DTT oxidation blockers – biochemical, H2O2 detection, luminescence, cherry-pick, dose response (AID 493248)
[3] = Luminescence Cell-Based Dose Response HTS to Identify Activators of Luciferase Translation or Activity in H4 […] Cells. [Related pubchem assays: 1829 (Project Summary), 1814 (Primary HTS)]; assay type: functional
[4] = biological target: T2, Corticotropin-releasing factor receptor 2/Corticotropin-releasing factor-binding protein (Homo sapiens, UniProt P24387+Q13324); assay: Dose Response confirmation of uHTS hits for small molecule antagonists of the CRF-binding protein and CRF-R2 receptor complex.; assay type: functional; details: read-out: IC50_Mean
T2 sequence (Q13324 whole entry): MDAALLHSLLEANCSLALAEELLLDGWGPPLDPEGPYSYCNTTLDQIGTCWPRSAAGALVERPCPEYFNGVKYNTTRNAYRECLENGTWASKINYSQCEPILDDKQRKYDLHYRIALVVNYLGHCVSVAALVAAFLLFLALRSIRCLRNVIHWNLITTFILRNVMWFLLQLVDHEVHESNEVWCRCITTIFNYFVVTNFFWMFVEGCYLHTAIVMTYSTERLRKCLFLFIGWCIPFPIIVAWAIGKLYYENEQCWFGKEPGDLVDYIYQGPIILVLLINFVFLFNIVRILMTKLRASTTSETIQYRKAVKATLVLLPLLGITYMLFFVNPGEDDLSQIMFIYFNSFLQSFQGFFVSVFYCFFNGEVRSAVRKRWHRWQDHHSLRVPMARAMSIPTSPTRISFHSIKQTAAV
T2 sequence (P24387 whole entry): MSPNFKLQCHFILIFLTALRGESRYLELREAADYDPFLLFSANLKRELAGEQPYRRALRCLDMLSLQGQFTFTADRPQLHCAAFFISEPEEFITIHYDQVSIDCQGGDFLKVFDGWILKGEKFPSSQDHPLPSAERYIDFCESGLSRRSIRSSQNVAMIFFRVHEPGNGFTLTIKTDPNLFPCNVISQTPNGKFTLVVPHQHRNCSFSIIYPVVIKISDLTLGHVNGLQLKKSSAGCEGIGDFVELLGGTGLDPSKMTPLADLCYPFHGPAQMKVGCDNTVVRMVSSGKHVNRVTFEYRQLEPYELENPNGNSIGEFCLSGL

[5] = biological target: T2, Corticotropin-releasing factor receptor 2/Corticotropin-releasing factor-binding protein; assay: activators of CRF receptor 2 with binding protein – uHTS hits, confirmation (AID 602473); assay type: functional; details: read-out: EC50_Mean
[6] = Luminescence Cell-Based Dose Confirmation HTS to Identify Activators of 5'UTR Stem-Loop Driven Alpha-Synuclein mRNA Translation in H4 Neuroglioblastoma Cells. [Related pubchem assays: 1829 (Project Summary), 1814 (Primary HTS)]; assay type: functional
H4 = assay: Luminescence Cell-Based Dose Response HTS to Identify Activators of 5'UTR Stem-Loop Driven Prion Protein mRNA Translation in H4 Neuroglioblastoma Cells. [Related pubchem assays: 1829 (Project Summary), 1814 (Primary HTS)]; assay type: functional; details: Homo sapiens
cells [7] = assay type: functional, cell-based
cells [8] = assay type: functional, cell-based; remark: listed apart in the source
[9] = HIV-1 Vif–A3G interaction blockers – biochemical, TR-FRET, GST-Vif 1-94, biotin-A3G peptide, dose response retest, primary screen (AID 1117319); assay type: functional;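 further: TR-FRET signal of purified GST-Vif binding a biotinylated A3G peptide; inhibitors lower the FRET signal by blocking Vif and A3G binding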
[10] = biological target: Heat shock protein HSP 90-alpha (Homo sapiens, UniProt P07900); assay type: functional, organism-based
Nonstructural protein 1 = Nonstructural protein 1 (Influenza A virus, UniProt Q194T2); assay type: functional, Influenza A virus (A/California/07/2009(H1N1))
Genome polyprotein = Genome polyprotein (dengue virus type 2, UniProt P29990); assay: flavivirus cap methylation enzyme inhibition – biochemical, confirmation dose response, primary screen (AID 588689); assay type: functional
[11] = blockers of CRF-binding protein–CRF-R2 complex – cell-based, uHTS hits, 384-well, dose response (AID 651639); assay type: functional, Homo sapiens; details: read-out: IC50_Mean
[12] = blockade of melanocortin 4 receptor signaling – cell-based, plate reader, cherry pick, counter-screen for LGR2 antagonist project, dose response (AID 743444); assay type: functional;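 further: transfected HEK 293 cells stimulated with alpha-MSH peptide; potency of inhibitors of the alpha-MSH evoked signal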
[13] = A549 cell cytotoxicity, dose response, cytotoxicity control, plate reader, cherry-pick, antagonist series (AID 743412); assay type: functional, cell-based
[14] = blockers of bursicon-stimulated LGR2 cAMP reporter – cell-based, HEK293, CRE-luciferase reporter, cherry pick, set 2, dose response (AID 743343); assay type: functional;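 further: transfected cells were stimulated with diluted bursicon conditioned medium after compound addition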
[15] = toxicity toward HepG2 liver cells – cell-based, plate reader, cherry-pick, antagonist series, cytotoxicity control, dose response (AID 743416); assay type: functional
[16] = biological target: T3, RNA-binding protein pos-1 (Caenorhabditis elegans, UniProt G5EF15); assay: disruptors of C. elegans POS-1 RNA interaction – biochemical, fluorescence polarization, dose response (AID 1964);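 further: purified POS-1 fused to maltose binding protein made in E. coli; potency of compounds blocking POS-1 binding to fluorescent RNA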
T3 sequence (G5EF15 whole entry): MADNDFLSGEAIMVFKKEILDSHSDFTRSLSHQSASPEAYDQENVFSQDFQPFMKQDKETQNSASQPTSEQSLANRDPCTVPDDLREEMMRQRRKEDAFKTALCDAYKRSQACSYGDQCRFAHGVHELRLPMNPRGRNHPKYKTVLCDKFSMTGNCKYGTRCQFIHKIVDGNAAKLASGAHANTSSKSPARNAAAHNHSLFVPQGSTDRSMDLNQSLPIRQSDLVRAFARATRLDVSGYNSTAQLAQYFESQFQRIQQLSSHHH

[17] = biological target: T4, Zinc finger protein mex-5 (Caenorhabditis elegans, UniProt Q9XUB2); assay: potency of MEX-5 RNA-binding blockers – biochemical, C. elegans, fluorescence polarization, dose response (AID 1960)
T4 sequence (Q9XUB2 whole entry): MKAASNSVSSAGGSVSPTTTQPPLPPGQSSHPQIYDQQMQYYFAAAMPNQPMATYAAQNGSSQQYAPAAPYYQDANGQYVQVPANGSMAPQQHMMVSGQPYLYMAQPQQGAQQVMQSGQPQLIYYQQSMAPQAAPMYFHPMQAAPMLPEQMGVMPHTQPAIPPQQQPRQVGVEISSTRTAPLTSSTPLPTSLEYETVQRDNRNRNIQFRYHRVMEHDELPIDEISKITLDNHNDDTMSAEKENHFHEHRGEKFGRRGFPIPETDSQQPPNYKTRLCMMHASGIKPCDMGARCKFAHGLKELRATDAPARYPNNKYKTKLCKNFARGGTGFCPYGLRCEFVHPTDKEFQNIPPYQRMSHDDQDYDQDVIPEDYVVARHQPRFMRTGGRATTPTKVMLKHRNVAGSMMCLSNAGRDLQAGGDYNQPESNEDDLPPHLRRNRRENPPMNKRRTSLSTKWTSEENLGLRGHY

Genome polyprotein, sequence (P29990 2492-3391 limits assumed): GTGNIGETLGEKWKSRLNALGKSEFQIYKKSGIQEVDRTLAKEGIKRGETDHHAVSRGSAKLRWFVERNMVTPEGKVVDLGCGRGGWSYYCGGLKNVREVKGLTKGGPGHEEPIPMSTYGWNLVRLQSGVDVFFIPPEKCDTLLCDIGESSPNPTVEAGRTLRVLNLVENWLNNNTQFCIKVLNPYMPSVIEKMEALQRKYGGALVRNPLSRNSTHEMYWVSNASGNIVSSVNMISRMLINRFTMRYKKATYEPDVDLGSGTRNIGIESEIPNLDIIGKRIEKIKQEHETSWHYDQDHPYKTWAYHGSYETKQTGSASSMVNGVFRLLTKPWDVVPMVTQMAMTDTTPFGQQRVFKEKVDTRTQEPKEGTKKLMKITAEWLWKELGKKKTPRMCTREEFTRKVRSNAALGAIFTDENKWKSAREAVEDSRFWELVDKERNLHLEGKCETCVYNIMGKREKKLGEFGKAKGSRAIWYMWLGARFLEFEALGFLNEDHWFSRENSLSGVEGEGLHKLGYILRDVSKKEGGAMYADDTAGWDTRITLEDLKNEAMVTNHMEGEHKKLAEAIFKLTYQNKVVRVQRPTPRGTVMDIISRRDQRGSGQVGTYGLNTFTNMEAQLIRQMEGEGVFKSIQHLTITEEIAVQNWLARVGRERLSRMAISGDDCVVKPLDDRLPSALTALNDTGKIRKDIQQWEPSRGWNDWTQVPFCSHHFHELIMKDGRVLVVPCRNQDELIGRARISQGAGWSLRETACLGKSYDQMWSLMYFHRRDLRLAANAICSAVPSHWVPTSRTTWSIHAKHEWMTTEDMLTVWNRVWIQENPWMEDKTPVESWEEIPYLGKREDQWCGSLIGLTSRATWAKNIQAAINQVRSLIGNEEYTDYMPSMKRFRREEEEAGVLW
Nonstructural protein 1, sequence (Q194T2 whole entry): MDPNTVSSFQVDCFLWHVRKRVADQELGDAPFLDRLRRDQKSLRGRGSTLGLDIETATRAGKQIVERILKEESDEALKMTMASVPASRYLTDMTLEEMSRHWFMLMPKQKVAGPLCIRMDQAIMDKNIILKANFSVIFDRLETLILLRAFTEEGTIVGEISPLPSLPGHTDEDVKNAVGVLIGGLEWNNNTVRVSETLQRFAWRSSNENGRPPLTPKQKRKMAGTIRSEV
FAD-linked sulfhydryl oxidase ALR, sequence (P55789 whole entry): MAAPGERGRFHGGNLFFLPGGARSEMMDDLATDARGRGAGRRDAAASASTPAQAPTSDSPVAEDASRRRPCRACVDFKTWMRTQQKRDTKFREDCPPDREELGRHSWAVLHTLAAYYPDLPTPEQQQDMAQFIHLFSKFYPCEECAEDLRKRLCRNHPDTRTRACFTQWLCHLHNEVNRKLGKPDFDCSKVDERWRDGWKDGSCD

Structure (SMILES): CCCC(=O)N1CCc2cc(-c3nc(N)sc3C)ccc21
- EC50 [1]: 0.376 µM (active)
- AC50 [2]: 0.149 µM (active)
- EC50 [3]: 31.9 µM (active)
- IC50 [4]: > 47.1 µM (inactive)
- EC50 [5]: > 53 µM (inactive)
- EC50 [6]: 43.5 µM (active)
- EC50 (H4): 44.6 µM (active)

Structure (SMILES): Cc1nc2nc(-c3ccco3)nn2c(C)c1Cl
- EC50 (cells [7]): > 350 µM (not active)
- EC50 (cells [8]): > 350 µM (not active)
- IC50 [9]: > 100 µM (active)

Structure (SMILES): CC(=NNC(=S)N(Cc1ccccn1)Cc1ccccn1)c1cnccn1
- AC50 [10]: 3.3 µM (active)
- IC50 (Nonstructural protein 1): 1.18 µM (active)

Structure (SMILES): CCOC(=O)c1cc(C)n(CCc2c[nH]cn2)c1C
- EC50 [1]: 0.0533 µM (active)

Structure (SMILES): Oc1c(C(c2ccccc2)N2CCOCC2)ccc2ccccc12 (stereo not given)
- AC50 [10]: 7.26 µM (active)

Structure (SMILES): C#CCOc1ccc(/C=C2/C(=O)N(c3ccc(S(N)(=O)=O)cc3)N=C2C)cc1OC
- IC50 (Genome polyprotein): > 100 µM (active)

Structure (SMILES): COc1ccc(NC(=O)CN2CCC(C(N)=O)CC2)cc1
- IC50 [9]: > 100 µM (active)

Structure (SMILES): S=C(NCCc1ccccc1)N1CCC2CC1c1c(Cl)cccc12 (stereo not given)
- IC50 [4]: 28.9 µM (active)
- EC50 [5]: > 53 µM (inactive)
- IC50 [11]: > 20 µM (inactive)

Structure (SMILES): Cc1cs/c(=N\c2ccccc2)n1Cc1ccco1
- IC50 [4]: 38.4 µM (active)
- EC50 [5]: > 53 µM (inactive)
- IC50 [11]: > 20 µM (inactive)

Structure (SMILES): Cc1cc(C)n2c(Nc3ccc4c(c3)OCCO4)c(-c3cc4ccccc4o3)nc2n1
- AC50 [12]: 22.8 µM (active)
- AC50 [13]: 29.8 µM (active)
- AC50 [14]: 12.7 µM (active)
- AC50 [15]: > 52 µM (inactive)

Structure (SMILES): CC1C/C(=N/N2C(=O)CSC2=S)CC(C)(C)C1 (stereo not given)
- IC50 [9]: > 100 µM (active)

Structure (SMILES): COc1ccc(/C=c2\sc3nc(=O)c(C)nn3c2=O)c(OC)c1
- EC50 [16]: > 300 µM (not active)
- EC50 [17]: 88 µM (active)
- IC50 (Genome polyprotein): 22.1 µM (active)
